# In patent publication US11530179B2, “Amorphous solid succinylated 3-(fatty acid amido)-2-hydroxy-1 -(protected hydroxy)-propane salts and methods of making the same” (Geron Corporation, priority 2019, dated 2022):
# Legend:
# Format in all cases: physicochemical
# [1] = Physical stability at room temperature under different relative humidity (RH); conditions: for Physical stability, Observation: 20-25° C., 300 mg in uncapped scintillation vial
# Method: The physical stability of the amorphous 3-(palmitoyl amido)-2-hydroxy-1-(dimethoxytriphenylmethyl hydroxy)-propane lithium salts were tested at room temperature under different relative humidity (RH). 300 mg of amorphous 3-(palmitoyl amido)-2-hydroxy-1-(dimethoxytriphenylmethyl hydroxy)-propane lithium salt was placed in uncapped scintillation vials at 11% RH, 33% RH and 75% RH for days. (Table 1)
# [2] = Solubility in organic solvents; conditions: most organic solvents, at or below ambient temperature
# [3] = Physical form at room temperature (isolation and storage)
smiles,measurement,setting,value
CCCCCCCCCCCCCCCC(=O)NCC(COC(c1ccccc1)(c1ccc(OC)cc1)c1ccc(OC)cc1)OC(=O)CCC(=O)[O-].[Li+] (stereo not drawn) [succinylated 3-(palmitoyl amido)-2-hydroxy-1-(dimethoxytriphenylmethyl hydroxy)-propane lithium salt],"Physical stability, Observation","[1]; 11% RH, examined by gently shaking once every day",Remains free-flowing solids up to 14 days*
same,"Physical stability, Observation","[1]; 33% RH, examined by gently shaking once every day",Remains free-flowing solids up to 14 days*
same,"Physical stability, Observation",[1]; 75% RH,Turns to sticky after 30 min
same,Physical stability,"[1]; room temperature, up to 33% relative humidity",remained solid for an extended period of time
same,Solubility in organic solvents,[2],highly soluble
same,Physical form,[3],stable solids
